pIC50: −log10 of the molar value.
Tests used:
Mahlavu (liver cancer) = assay: cytotoxicity against human adherent tumor cell line Mahlavu; type: cell-based; settings: four hours exposure, cells counted after 5 days
Experimental: In addition, cytotoxicities of (Sp)-1 and (Rp)-1 against a human adherent tumor cell line, Mahlavu (liver cancer), were also evaluated according to the following protocol:
Cryopreserved Mahlavu cells were thawed and cultured as a monolayer in the media M10 (Dulbecco's modified eagle's medium supplemented with 10% FCS and 100 units/mL penicillin and 100 μg/mL streptomycin) in a 75 cm^2 tissue culture flask. The flask was kept in a 5% CO2 humidified incubator at 37° C. Since the cells attached strongly to the bottom of culture flask, trypsin solution in PBS was used to detach the cells and then the Mahlavu cells were washed and counted as suspension cells.
10,000 cells were placed into each well of 6-well petri plates and incubated overnight to allow attachment to the plate. Triplicate samples of cells were allowed to react with the gold(I) complexes at three concentrations for four hours, followed by removal of the media. As before, a control with no drug treatment was included. The plates were then washed once with PBS(5 mL) and fresh media M10 (3 mL) was added. The plates were incubated at 37° C. in a CO2 incubator for 5 days. The Mahlavu cells In each well were trypsinized and counted as usual.
The IC50 values of (Sp)-I and (Rp)-I against this adherent tumor cell line were 6 and 8 μM, respectively. The IC50 values were determined as described above.

P3HR-1 (B-cell lymphoma) = assay: human suspension tumor cell line assay, P3HR-1; type: cell-based; settings: 2 h exposure, cells counted after 5 days; read-out: cytotoxicity IC50, P3HR-1
Experimental: (§1) The human suspension tumor cell line assay determines the ability of a compound to inhibit the cells' ability to divide in vitro after a two hour exposure to the compound. The panel of human suspension tumor cell lines consist of Raji (B-cell lymphoma), Daudi (B-cell lymphoma), P3HR-1(B-cell lymphoma), and Molt-4 (T-cell leukemia). The cytotoxicity tests were carried out in vitro according to the following protocol:
(§2) Cryopreserved tumor cells were thawed and cultured in the media RPMI-1640 supplemented with 10% fetal calf serum (FCS) and 100 units/mL penicillin and 100 μg/mL streptomycin (“media R10”), in a 5% CO2 humidified incubator at 37° C. They were subcultured every three days in a 75 cm^2 tissue culture flask.
(§3) A hemocytometer with four 1×1×0.1 mm^3 cells was used to count the cell concentration of a specified cell suspension solution. Trypan Blue was used to determine the viability of the counted cells, as live cells can exclude the dye penetration.
(§4) Each of Raji, Daudi, P3HR-1 and Molt-4 cells were dispensed into 6-well petri plates with 30,000 cells per well and were labelled in groups of three. A drug solution with a specified concentration was freshly prepared by dilution of a gold complex solution (1 mM) in DMSO with the media R10. […] The number of cells in each well was counted and the average value of triplicate samples were determined for each drug concentration.

Raji (B-cell lymphoma) = assay: human suspension tumor cell line assay, Raji; type: cell-based; settings: 2 h exposure, cells counted after 5 days; read-out: cytotoxicity IC50, Raji
Experimental: as §1, §2, §3, §4

Molt-4 (T-cell leukemia) = assay: human suspension tumor cell line assay, Molt-4; type: cell-based; settings: 2 h exposure, cells counted after 5 days; read-out: cytotoxicity IC50, Molt-4
Experimental: as §1, §2, §3, §4

advanced K36 lymphoma = advanced K36 lymphoma model, treatment from Day 7; type: in vivo, AKR mice; settings: for average ILS % (Increased Life Span): control average life span 21 days after tumour implantation; for anti-tumor activity against advanced K36 tumor model in words (FIG. 1): treatment from Day 7, i.p. twice a day; for MTTD in advanced K36 model: treatment from Day 7, up to 4 days
Experimental: On Day 0, AKR mice were injected with K36 lymphoma cells. On Day 7, mice were divided into control and treatment groups. Treatment groups were injected intraperitoneally with either cisplatin, (Sp)-1, or (Rp)-1. Control groups were […] treated with any of the above compounds. On each subsequent day, the 3 treatment groups were injected with the respective compounds twice a day. Tumor weights were estimated from two-dimensional measurements on each day.
The anti-tumor activities of (Sp)- and (Rp)-I were also assessed against advanced K36 lymphoma model. Also, the active positive control, cisplatin, was included in the evaluation.
The protocol design for this test was similar as described above except that drug administrations began on Day 7 (Day 0 is the date of implantation). At this stage, the tumor sizes on mice averaged around 9×8 mm and the estimated average tumor weight was about 300 mg. Due to the extremely fast growth of the K36 lymphoma (the double time is around 1 day), there was limited time (up to 4 days) to escalate the drug dosage to the most tolerated level, before the tumor became too big to give a positive response to any drug treatment.
The results are visualised in FIG. 1. […] They can markedly retard the tumor growth during the period of drug treatment and even after treatment. The average ILS % (Increased Life Span) of (Sp)-I and (Rp)-I was 48% and 31%, respectively (the average life span of the control group was 21 days after tumour implantation). Particularly, one mouse treated with (Sp)-I survived for 48 days after tumour implantation.

Daudi (B-cell lymphoma) = assay: human suspension tumor cell line assay, Daudi; type: cell-based; settings: 2 h exposure, cells counted after 5 days; read-out: cytotoxicity IC50, Daudi
Experimental: as §1, §2, §3, §4

K36 lymphoma = assay: secondary in vivo evaluation, K36 lymphoma at three dosage levels; design: species or system AKR mice
Experimental: (§5) The in vivo anti-tumor activities of the phosphino-gold(I) compounds were evaluated using a murine tumor model, K36 lymphoma (T-cell lymphoma), inoculated subcutaneously into the AKR inbred mice. K36 lymphoma is a transformed cell line which originated from the AKR mice infected with murine leukemic retrovirus. The K36 lymphoma cells are naturally tumorigenic in syngenic AKR mice and is non-immunogenic to the host mice. The in vivo tests were carried out according to the following protocol:
The mice were then randomly distributed into control and treatment groups with 5 mice/group.
Day 1-7: The desired dose of a test agent was dissolved in a minimum amount (<50 μL) of dimethylacetamide (DMA), followed by addition of Cremaphor_EL (polyethoxylated castor oil, <30 μL) with mixing. Saline was added to dilute the drug solution and the desired dose was delivered in a volume of 5×0.3 mL for one group of mice (5 mice per group). […] Formulation of a test agent was carried out just before injection into the animals.
(§6) Day 8-11: Tumor weights were estimated from two-dimensional measurement, following the formula:
(§7) Tumor weight (in mg)=(a×b^2)/2,
(§8) wherein a and b are tumor length and width (in mm), respectively. The usual T/C value was used to assess the in vivo anti-tumor activity. T refers to the total tumor weight of the treatment group (including zeros), whereas, C refers to the total tumor weight of the non-treatment control group (including zeros).
In addition, three dose levels of 0.67 decrements were used in the secondary in vivo evaluation studies of (Sp)-1 and (Rp)-1 against the K36 lymphoma. The purpose of testing at multiple dosage levels is to exclude agents with exceptionally steep dose-response curves, where only the most tolerated dose is active.

[1] = test system: K36 lymphoma (T-cell lymphoma); assay: in vivo anti-tumor activity, K36 lymphoma in AKR mice (primary screen); settings: at MTTD, i.p. Day 1-7, tumor weights Day 8-11
Experimental: as §5
Day 0: K36 lymphoma cells were washed with phosphate-buffered saline (PBS) for three times and suspended in RPMI 1640 medium at the concentration of 10×10^6 cells/mL 10^6 cells in 0.1 mL of the medium were implanted subcutaneously into each of the two flanks of inbred AKR mice with a ½-in, 28-gauge, 1-mL syringe. The mice were then randomly distributed into control and treatment groups with 5 mice/group.
Day 1-7: The desired dose of a test agent was dissolved in a minimum amount (<50 μL) of dimethylacetamide (DMA), followed by addition of Cremaphor_EL (polyethoxylated castor oil, <30 μL) with mixing. Saline was added to dilute the drug solution and the desired dose was delivered in a volume of 5×0.3 mL for one group of mice (5 mice per group). In this case, the final concentration of dimethylacetamide was less than 3.3% and that of the carrier less than 2%. Formulation of a test agent was carried out just before injection into the animals. The test agent was injected intraperitoneally into the treatment groups of mice twice a day following the flexible schedule as recommended in the literature (Corbett, T. H.; Valeriote, F. A; LoRusso, P.; Polin, L; et. al. In “Anticancer Drug Development Guide: Preclinical Screening, Clinical Trials, and Approval”, (Ed. Teicher, B. A.), Humana Press Inc., Totowa, N.J., 1997 p 75-99.) to reach the most tolerated drug dose.
as §6, §7
as §8, with “zeros). According to the NCI (National Cancer Institute in USA) standard, a T/C value of 42% is considered significant anti-tumor activity.” for “zeros).”
Furthermore, two compounds cisplatin (cis-diaminedichloroplatinum(II)) and [Au(dppe)2]Cl (dppe: 1,2-bis(diphenylphosphino)ethane) with known anti-tumor activities were also included in the In vivo test Table 2 summarizes the anti-tumor activities of (Sp)-1 and (Rp)-1.

[2] = dose levels of 54 and 36 μmol/kg

SMILES | pIC50 (Mahlavu (liver cancer)) | pIC50 (P3HR-1 (B-cell lymphoma)) | pIC50 (Raji (B-cell lymphoma)) | pIC50 (Molt-4 (T-cell leukemia)) | average ILS % (Increased Life Span) (advanced K36 lymphoma) [%] | anti-tumor activity against advanced K36 tumor model in words (FIG. 1) (advanced K36 lymphoma) | MTTD in advanced K36 model (advanced K36 lymphoma) [µmol/kg] | pIC50 (Daudi (B-cell lymphoma)) | T/C (K36 lymphoma; dosage 24 μmol/kg) [%] | T/C (K36 lymphoma; dosage 36 μmol/kg) [%] | T/C (K36 lymphoma; dosage 54 μmol/kg) [%] | in vivo activity in words (K36 lymphoma; dosage level of 24 μmol/kg) | in vivo activity in words (K36 lymphoma; [2]) | T/C (tumor weight treated/control x 100) [1] [%] | survival of one treated mouse after tumour implantation (advanced K36 lymphoma; one mouse) [days]
CCOC(=O)C1C(P(c2ccccc2)c2ccccc2)C2C(C)=C(C)C1P2c1ccccc1.[Cl][Au].[Cl][Au] [(Rp)-I, μ-{(1α,4α,5α(S),6β(R),7R)-5-(diphenylphosphino)-2,3-dimethyl-6-(ethoxycarbonyl)-7-phenyl-7-phosphabicyclo[2.2.1]hept-2-ene-P5,P7}bis[chlorogold(I)]] | 5.10 | 6.70 | 6.52 | 6.00 | 31 | significant anti-tumor activities | 32 | 6.30 | 38 | 14 | 6 | moderate activity | highly active | 6 | –
CCOC(=O)C1C(P(c2ccccc2)c2ccccc2)C2C(C)=C(C)C1P2c1ccccc1.[Cl][Au].[Cl][Au] [(Sp)-I, μ-{(1α,4α,5α(R),6β(S),7S)-5-(diphenylphosphino)-2,3-dimethyl-6-(ethoxycarbonyl)-7-phenyl-7-phosphabicyclo[2.2.1]hept-2-ene-P5,P7}bis[chlorogold(I)]] | 5.22 | 6.30 | 6.30 | 6.00 | 48 | significant anti-tumor activities | 32 | 6.10 | 33 | 12 | 5 | moderate activity | highly active | 5 | 48
N.N.[Cl][Pt][Cl] [Cisplatin, cis-diaminedichloroplatinum(II), reference compound] | – | – | – | – | – | did not inhibit the growth of the advanced K36 lymphoma at all | 28 | – | – | – | – | – | – | 6 | –
[Au+].[Cl-].c1ccc(P(CCP(c2ccccc2)c2ccccc2)c2ccccc2)cc1.c1ccc(P(CCP(c2ccccc2)c2ccccc2)c2ccccc2)cc1 [[Au(dppe)2]Cl, reference compound] | – | – | – | – | – | – | – | – | – | – | – | – | – | 12 | –
